Experimental findings from publication PMC7998250, “Temperate Zone Plant Natural Products—A Novel Resource for Activity against Tropical Parasitic Diseases” (Pharmaceuticals, 2021) are described below.

Series [1] deals with L. mexicana intramacrophage amastigotes. In words: L. mexicana intramacrophage assay (NanoLuc PEST strain in THP-1). The format is cell-based, Leishmania mexicana. The source says:
Figure S4: Leishmania intramacrophage assays. […] Data represents the mean and standard deviation (n=4). B Average number of parasites per macrophage in the same experiment as A. A Kruskal-Wallis test followed by Dunn’s multiple comparison test was used to determine a significant difference (p<0.05) of each treatment to the untreated control and have been indicated with those being significant marked with an asterix. C Comparing 700022 activity between axenic amastigotes (red) and intramacrophage amastigotes (blue). Concentration–response curves for compound 700022 against: intracellular L. mexicana NanoLuc-PEST-transgenic line (blue), axenic amastigotes of NanoLuc-PEST-transgenic line (red) as well as the human cell lines HepG2 (green) and THP-1 (black). The data for the intracellular L. mexicana NanoLuc-PEST-transgenic line represent one biological repeat of three technical repeats.

Series [2] relates to WT L. mexicana procyclic promastigotes. Put plainly: EC50 in WT L. mexicana promastigotes. The note with it: Leishmania mexicana, read-out: EC50 in WT promastigotes. The format is cell-based. How it is done: (§1) A 700022-resistant line of L. mexicana (r22) was generated using a previously reported method (Figure S3). […] All leishmanicidal sterols identified were assayed against r22 after 8 weeks of 700022 pressure and cross-resistance was found against all four compounds, each with a similar resistance index of between 4–5 (Figure 6c). Following 28 weeks of selection, the morphology of the r22 promastigotes was compared to that of WT (Figure 6d). […] The body area of both promastigotes and amastigotes was also assessed, noting a small (c 20%) decrease in the body area of r22 parasites compared to WT strains (Figure S3).
(§2) L. mexicana parasites were grown in increasing concentrations of 700022 in a stepwise manner, as previously described. […] A dose response assay of the newly selected promastigotes was completed as stated above, with the exception of the seeding density of 1 × 10^5 cells/mL. At this point, the drug pressure was increased to the concentration of the new EC50 value.

The test system of series [3] is L. mexicana r22 promastigotes. In words: EC50 in 700022-resistant L. mexicana (r22) promastigotes. Type of series: cell-based. The note with it: Leishmania mexicana, read-out: EC50 in r22 promastigotes, after 28 weeks of 700022 selection. How it is done:
as §1, §2

A further series deals with HepG2 cells. Put plainly: Cytotoxicity CC50, HepG2, Alamar Blue. The note with it: read-out: HepG2 CC50; 48 h. The method in brief:
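Human hepatoma cells seeded at 1 × 10^5 cells/mL with two-fold serial compound dilutions, incubated 48 h at 37 °C, 5% CO2 in DMEM/10% FBS. Viability read by Alamar Blue. CC50 estimated from viability normalised to untreated controls versus log concentration.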

The mark [4] stands for this setting: factor, relative to intramacrophage amastigote EC50.

Regarding `CC1=CC(O)(CC(C)C2(C)CC=C3C4=CCC5C(C)(C)C(O)CCC5(C)C4CCC32C)OC1=O` (stereo not shown) [Compound 700022], the concentration giving a half-maximal response (EC50) in series [1] (Leishmania mexicana, L. mexicana NanoLuc PEST strain in THP-1) was determined as 10.7 µM; in series [2], 11.5 µM; in series [3], 85.6 µM. The “selectivity over HepG2” value in series [1] (setting [4]) is reported as 2.7. Besides, the “selectivity over THP-1” value in series [1] (setting [4]) turned out to be 1.6.
For `C=C1C(=O)OC2CC(C)C3C=CC(=O)C3(C)C(OC(C)=O)C12` (stereo not shown) [Compound 701155], the cytotoxic concentration (CC50) in the series with HepG2 cells stood at 1.1 µM.
`C=C1C(=O)OC2CC(C)C3C=CC(=O)C3(C)C(OC(=O)C(C)CC)C12` (stereo not shown) [Compound 701158]: the CC50 with HepG2 cells came out at 0.81 µM.
